Some test systems named below: SK-OV-3 ovarian; UACC-257 melanoma; RXF 393 renal; RPMI-8226 leukemia; SF-539 CNS; T-47D breast; OVCAR-4 ovarian; SF-295 CNS; SK-MEL-2 melanoma; A498 renal.
Common to all, as to assay: DTP human tumour cell line panel, 48 h

“And” between values parts separate entries of the source, which are not always exact repeats. Identical values can stand only once.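 Test compounds were applied to cells in 96-well plates for 48 hours at 5 doses. The concentration for 50% growth inhibition is given as GI50. TGI denotes the concentration required for complete inhibition of growth.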 Some results are limits rather than exact numbers.

These results are taken from PubChem BioAssay (NCI).

In the case of `CC12ON(P(=O)(c3ccccc3)c3ccccc3)C(C)(c3ccccc31)c1ccccc12`, the concentration for total growth inhibition (TGI) with SK-OV-3 ovarian, with UACC-257 melanoma, with RXF 393 renal, in the test on RPMI-8226 leukemia, in the test on SF-539 CNS and with T-47D breast was over 100 µM throughout. For the same molecule, the TGI in the test on OVCAR-4 ovarian, in the test with SF-295 CNS and in the test with SK-MEL-2 melanoma was over 100 µM in each case.

In the case of `COc1c(C)c(C/C=C(\C)CC/C=C(\C)CC/C=C(\C)CCC=C(C)C)c(OC)c2ccccc12`, the TGI in the test with SK-OV-3 ovarian, in the test on UACC-257 melanoma, with RXF 393 renal, in the test on SF-539 CNS, in the test with OVCAR-4 ovarian and in the test with SF-295 CNS was over 100 µM in each case. The same molecule had a TGI with SK-MEL-2 melanoma of over 100 µM.

As for `CN[C@@H](C)[C@@H](O)c1ccccc1`, the total growth inhibition concentration (TGI) with UACC-257 melanoma, in the test with RPMI-8226 leukemia, with SF-539 CNS, with T-47D breast, in the test on OVCAR-4 ovarian and in the test on SF-295 CNS was over 100 µM each time. This molecule registered a TGI in the test on SK-MEL-2 melanoma of over 100 µM.

With `CC(=O)Oc1cc(OC(C)=O)c2c(C)cc(=O)oc2c1`, the TGI in the test on SK-OV-3 ovarian, in the test on UACC-257 melanoma, in the test with RPMI-8226 leukemia, in the test on SF-539 CNS, in the test on OVCAR-4 ovarian and in the test on A498 renal was over 100 µM throughout. In addition, the concentration for total growth inhibition (TGI) in the test with SF-295 CNS and in the test on SK-MEL-2 melanoma was over 100 µM in each case.

As to `COC([C@@H](OC(=O)c1ccccc1)[C@H](OC(=O)c1ccccc1)C(O)COC(=O)c1ccccc1)n1cc(C)c(=O)[nH]c1=O` (stereo not given in full), the concentration for total growth inhibition (TGI) in the test with SK-OV-3 ovarian was over 100 µM; in the test with UACC-257 melanoma, over 100 µM; in the test with RXF 393 renal it was 43.1 µM; with RPMI-8226 leukemia, over 100 µM; with T-47D breast, over 100 µM; in the test on OVCAR-4 ovarian it was 82.4 µM. Further, the figures for the TGI with SF-295 CNS and with SK-MEL-2 melanoma were 78.7 µM and 67.1 µM, respectively.

Regarding `O=C(O)CNC(=O)c1ccc2cc(C(=O)N3CC(CCl)c4ccc([N+](=O)[O-])cc43)[nH]c2c1` (stereo not given), the TGI in the test with SK-OV-3 ovarian, in the test with UACC-257 melanoma, with RXF 393 renal, in the test with RPMI-8226 leukemia, with SF-539 CNS and in the test with T-47D breast was over 100 µM each time. Besides, the concentration for total growth inhibition (TGI) in the test with OVCAR-4 ovarian, with SF-295 CNS and in the test with SK-MEL-2 melanoma was over 100 µM in each case.

As to `COc1ccc(N=C2C(=Nc3ccc(OC)cc3)N(c3ccc(N(C)C)cc3)C(=S)N2c2ccc(OC)cc2)cc1`, the TGI is over 100 µM in the test on SK-OV-3 ovarian; over 58.1 µM in the test with UACC-257 melanoma; over 100 µM in the test with RPMI-8226 leukemia; over 100 µM in the test with SF-539 CNS; over 100 µM with T-47D breast; over 100 µM with OVCAR-4 ovarian. The TGI in the test with A498 renal and in the test on SK-MEL-2 melanoma was over 100 µM throughout.

For the molecule `C[n+]1c2ccccc2c(/C=N\NS(=O)(=O)c2ccc(Cl)cc2)c2ccccc21`, the concentration for total growth inhibition (TGI) in the test with SK-OV-3 ovarian, with UACC-257 melanoma, in the test with RXF 393 renal, in the test on RPMI-8226 leukemia, with SF-539 CNS and in the test with OVCAR-4 ovarian was over 100 µM each time. Also, the TGI in the test with A498 renal, in the test on SF-295 CNS and in the test with SK-MEL-2 melanoma was over 100 µM in each case.

Consider `O=[N+]([O-])c1ccc([N+]2=NC(c3ccccc3)=NN(c3ccccc3)C2)cc1`, for which the TGI in the test on SK-OV-3 ovarian, with UACC-257 melanoma, in the test with RXF 393 renal, in the test on RPMI-8226 leukemia, with SF-539 CNS and in the test with OVCAR-4 ovarian was over 100 µM in each case. The concentration for total growth inhibition (TGI) in the test on SF-295 CNS is over 100 µM; in the test on SK-MEL-2 melanoma, 92.4 µM.

In the case of `CN(Cc1cnc2nc(N)nc(N)c2n1)c1ccc(C(=O)NC(CCC(=O)NC(CC(P(=O)(O)O)P(=O)(O)O)C(=O)O)C(=O)O)cc1` (stereo not given), the TGI in the test on SK-OV-3 ovarian, in the test with UACC-257 melanoma, with RXF 393 renal, in the test with T-47D breast, with OVCAR-4 ovarian and in the test with SF-295 CNS was over 100 µM each time. Further, the total growth inhibition concentration (TGI) with SK-MEL-2 melanoma was over 100 µM.

On to `CN(C)c1ccc(/C=C/C(=O)O)cc1`, for which the TGI in the test with SK-OV-3 ovarian, with UACC-257 melanoma, in the test on RPMI-8226 leukemia, with SF-539 CNS, in the test with A498 renal and in the test on SF-295 CNS was over 100 µM throughout. In the test on SK-MEL-2 melanoma, this molecule came in with a total growth inhibition concentration (TGI) of over 100 µM.

With `COc1ccc(CNc2nc3cc(C(F)(F)F)ccc3nc2-c2ccccc2)cc1OC`, the TGI in the test on SK-OV-3 ovarian, with UACC-257 melanoma, in the test with RXF 393 renal, in the test with SF-539 CNS, with T-47D breast and in the test with OVCAR-4 ovarian was over 100 µM each time. The TGI with SF-295 CNS and with SK-MEL-2 melanoma was over 100 µM each time.

For `COc1cc(OC2OC(COC(=O)c3cc(O)c(O)c(O)c3)C(O)C(O)C2O)ccc1O` (stereo not given), the TGI in the test with UACC-257 melanoma, in the test with RXF 393 renal, in the test on RPMI-8226 leukemia, in the test on SF-539 CNS, in the test with OVCAR-4 ovarian and with A498 renal was over 100 µM in each case. For the same molecule, the concentration for total growth inhibition (TGI) in the test with SF-295 CNS and in the test on SK-MEL-2 melanoma was over 100 µM in each case.

With `CCN(CC)CCOc1ccc(C(O)(Cc2ccc(OC)cc2)c2ccccc2)cc1` (stereo not given), the TGI was found to be 57.9 µM with SK-OV-3 ovarian; 30.3 µM with UACC-257 melanoma; 30.4 µM with RXF 393 renal; 39.7 µM with RPMI-8226 leukemia; 25.1 µM with SF-539 CNS; 75.3 µM with OVCAR-4 ovarian. Further, the values for the TGI in the test with A498 renal, with SF-295 CNS and with SK-MEL-2 melanoma were 41.2 µM, 33.1 µM and 35.9 µM, respectively.

As for `CC(=O)NC1(C(=O)N[C@@H](Cc2ccccc2)C(=O)NC2CCCCC2)Cc2ccc3ccccc3c2-c2c(ccc3ccccc23)C1`, the GI50 was 27.6 µM and > 100 µM in the test on SK-OV-3 ovarian; 2 µM and 5.32 µM in the test with UACC-257 melanoma; 3.31 µM and 13.9 µM with RPMI-8226 leukemia; 1.17 µM and 6.26 µM in the test with OVCAR-4 ovarian; 2.55 µM and 0.662 µM in the test on SF-295 CNS. The concentration for total growth inhibition (TGI) was over 100 µM in the test on SK-OV-3 ovarian; 10.8 µM and 75.5 µM in the test on UACC-257 melanoma; over 100 µM in the test on RPMI-8226 leukemia; over 100 µM in the test on T-47D breast; over 100 µM with OVCAR-4 ovarian; over 100 µM with A498 renal. Also, the total growth inhibition concentration (TGI) with SF-295 CNS and in the test on SK-MEL-2 melanoma was over 100 µM in each case.

A word on the TGI: it is the concentration at which net growth stops. Read a high TGI as less potent growth arrest. By GI50 is commonly meant the concentration that inhibits growth by half.
